For assay [1], the system named is KLPN multi-drug resistant strains. Briefly: MIC against multi-drug resistant strains (Table 5). Format: cell-based, Klebsiella pneumonia. The conditions noted are these: Klebsiella pneumoniae, alone, read-out: MIC. As to the method: (§1) MIC experiments of the antimicrobial agents were determined by a modified broth microdilution method in accordance with the Clinical and Laboratory Standards Institute (CLSI) guidelines using 96 well culture plates. In brief, serial dilutions of all plates were prepared at different concentrations (μg). The inoculum suspension was prepared by adding isolated colonies from a 18-20 hours on TSA plate into phosphate buffer (0.31 mM, pH 7.2) or in water for injection (BBraun) and adjusting the suspension to a turbidity equivalent to 0.5 McFarland Standard. Each well contained a final bacterial concentration of approximately 5×10^5 colony forming units (CFU)/mL. The plate was covered and incubated at 35° C. for 24 hours. […] For the microdilution plates, turbidity in wells can be measured at OD600 using TECAN infinite M200Pro. MIC was determined as […] concentration that gives a 99 percent inhibition.

The subject of assay [2] is ACBA multi-drug resistant strains. Briefly: MIC against multi-drug resistant strains (Table 5). Format: cell-based, Acinetobacter baumannii. The conditions noted are these: Acinetobacter baumannii, alone, read-out: MIC. As to the method:
as §1

In assay [3] the test system is ENT CLOACAE multi-drug resistant strains. Briefly: MIC against multi-drug resistant strains (Table 5). Format: cell-based, E. cloacae. The conditions noted are these: Enterobacter cloacae, alone, read-out: MIC. As to the method:
as §1

Assay [4] concerns colistin resistant MCR (+) E. Coli strains. As to the kind of experiment: MIC, broth microdilution, compound alone. Format: cell-based. The conditions noted are these: compound alone. A digest of the protocol: (§2)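 Wells held ~5×10^5 CFU/mL of bacteria prepared to 0.5 McFarland from overnight TSA colonies and exposed to serially diluted agents, following modified CLSI microdilution. After 24 h at 35 °C, growth judged by turbidity (OD600 possible); 99% inhibition sets the MIC.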
(Dilution methods test growth across graded concentrations, often in twofold steps.)

In assay [5] the test system is colistin resistant MCR (−) E. Cloacae strain 7023456439. Briefly: MIC, broth microdilution, compound alone. The settings on record: strain 7023456439 E. Cloacae. Format: cell-based. A digest of the protocol:
as §2

Assay [6] relates to colistin resistant MCR (−) E. Coli strains. Briefly: MIC, broth microdilution, compound alone. Format: cell-based. A digest of the protocol: as §2
For assay [7], the system named is colistin resistant MCR (+) E. Coli strains. Briefly: Synergy study: colistin MIC in the presence of compound. Format: cell-based. An outline of the steps:
(§3)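 After 24 hours, MIC was read as the lowest concentration without visible growth. Drugs were tested singly and in combination by CLSI broth microdilution, equal-amount colistin:LC compound mixtures serially diluted 2-fold at a fixed synergy concentration.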

For assay [8], the system named is colistin resistant MCR (−) E. Cloacae strain 7023456439. The assay is described as above. The conditions noted are these: strain 7023456439 E. Cloacae. Format: cell-based. An outline of the steps:
as §3

Assay [9] relates to colistin resistant MCR (−) E. Coli strains. The assay is described as above. Format: cell-based. A digest of the protocol:
as §3

Setting [10] is: strain 6083655967, MCR(+), compound at 2 μg.
Setting [11] is: strain 6103645107, MCR(+), compound at 2 μg.
Setting [12] is: strain 6123520276, MCR(+), compound at 2 μg.
Where [13] appears, read: strain 7023444207, MCR(+), compound at 2 μg.
[14] abbreviates: strain 6083672926, MCR(−), compound at 2 μg.
Where [15] appears, read: strain 7023446108, MCR(−), compound at 2 μg.
Where [16] appears, read: strain 7033607097, MCR(−), compound at 2 μg.

These results are taken from patent US12473250B2, “Molecular design of new antibiotics and antibiotic adjuvants against MCR strains” (priority 2019, dated 2025).

Converted amounts (≈) assume the structure as drawn. Like-named read-outs stand apart in the source and are kept apart here.

In general, MIC refers to the smallest concentration in the dilution series that meets the test's criterion for growth inhibition. Consider `NCC[C@H](O)C(=O)N[C@@H]1C[C@H](N)[C@@H](O[C@H]2O[C@H](CN)[C@@H](O)[C@H](O)[C@H]2O)[C@H](O)[C@H]1O[C@H]1O[C@H](CO)[C@@H](O)[C@H](N)[C@H]1O` [Amikacin], for which the MIC is 12.5 µg/mL (≈ 21.3 µM) in [1] (strain KLPN 8852); more than 50 µg/mL in assay [1] (strain KLPN 15588); 3.12 µg/mL (≈ 5.34 µM) in assay [1] (strain KLPN 24076); 3.12 µg/mL (≈ 5.34 µM) in assay [1] (strain KLPN 27025); 12.5 µg/mL (≈ 21.3 µM) in assay [2] (ATCC19606, strain ACBA ATCC 19606); 1.56 µg/mL (≈ 2.66 µM) in assay [2] (strain ACBA 1010). Also, the MIC was more than 50 µg/mL in assay [2] (strain ACBA 1012); 50 µg/mL (≈ 85.4 µM) in [2] (strain ACBA 43357); more than 50 µg/mL in [3] (strain ENT CLOACAE 6780); 0.78 µg/mL (≈ 1.33 µM) in [3] (strain ENT CLOACAE 21489); 25 µg/mL (≈ 42.7 µM) in assay [3] (strain ENT CLOACAE 30063); 25 µg/mL (≈ 42.7 µM) in [3] (strain ENT CLOACAE 44095).

Consider `CC1(C)C=Cc2c(ccc3c2OCC(c2ccc(OCCCCC[N+](C)(C)C)cc2OCCCCC[N+](C)(C)C)C3)O1` (stereo not shown) [LC316], for which the MIC in assay [4] (strain 6075066346, MCR (+)) was found to be 50 µg/mL; in assay [4] (strain 6083655967, MCR (+)) it was 50 µg/mL; in [4] (strain 6103645107, MCR (+)), 50 µg/mL; in assay [4] (strain 6123520276, MCR (+)), 50 µg/mL; in [4] (strain 7013177695, MCR (+)) it was 50 µg/mL; in [4] (strain 7023436560, MCR (+)), 50 µg/mL. Further, the MIC is 50 µg/mL in assay [4] (strain 7023444207, MCR (+)); more than 50 µg/mL in assay [5]; more than 50 µg/mL in assay [6] (strain 6083672926, MCR (−)); 50 µg/mL in assay [6] (strain 7023446108, MCR (−)); more than 50 µg/mL in [6] (strain 7033607097, MCR (−)). Further, the “Colistin MIC in the presence of the compound” value (“Colistin MIC in the presence” for short) is 1.55 µg/mL in assay [7] (strain 6075066346, MCR(+), compound at 5 μg (Table 2a: 5 ug/ml)); more than 12.5 µg/mL in assay [8] (compound at 5 μg (Table 2a: 5 ug/ml)); 6.25 µg/mL in [9] (strain 6083672926, MCR(−), compound at 5 μg (Table 2a: 5 ug/ml)); 1.56 µg/mL in assay [9] (strain 7023446108, MCR(−), compound at 5 μg (Table 2a: 5 ug/ml)); 1.56 µg/mL in assay [9] (strain 7033607097, MCR(−), compound at 5 μg (Table 2a: 5 ug/ml)).

As for `CC(C)=CCc1c(OCCCC[n+]2ccn(C)c2)ccc(C(=O)/C=C/c2ccc(OCCCC[n+]3ccn(C)c3)cc2)c1O` [LC350], the minimal inhibitory concentration (MIC) in assay [4] (strain 6075066346, MCR (+)) was determined as 3.125 µg/mL; in [4] (strain 6083655967, MCR (+)), 3.125 µg/mL; in assay [4] (strain 6103645107, MCR (+)), 3.125 µg/mL; in [4] (strain 6123520276, MCR (+)) it was 3.125 µg/mL; in assay [4] (strain 7013177695, MCR (+)) it was 3.125 µg/mL; in assay [4] (strain 7023436560, MCR (+)) it was 3.125 µg/mL. In addition, the MIC in assay [4] (strain 7023444207, MCR (+)) is 3.125 µg/mL; in assay [5] it was more than 50 µg/mL; in [6] (strain 6083672926, MCR (−)) it was 3.125 µg/mL; in assay [6] (strain 7023446108, MCR (−)), 3.125 µg/mL; in [6] (strain 7033607097, MCR (−)), 3.125 µg/mL. The “Colistin MIC in the presence” value in [7] (strain 6075066346, MCR(+), compound at 2 μg) worked out at 0.195 µg/mL; in assay [7] (setting [10]), 0.195 µg/mL; in assay [7] (setting [11]), 0.195 µg/mL; in assay [7] (setting [12]), 0.195 µg/mL; in [7] (strain 7013177695, MCR(+), compound at 2 μg) it was 0.195 µg/mL; in assay [7] (strain 7023436560, MCR(+), compound at 2 μg) it was 0.195 µg/mL. Also, the “Colistin MIC in the presence” value in assay [7] (setting [13]) is 0.195 µg/mL; in assay [8] (compound at 2 μg), more than 12.5 µg/mL; in assay [9] (setting [14]) it was 0.195 µg/mL; in assay [9] (setting [15]), 0.195 µg/mL; in [9] (setting [16]) it was 0.195 µg/mL.

As to `CC(C)=CCc1c(OCCCC[n+]2ccccc2)ccc(C(=O)/C=C/c2ccc(OCCCC[n+]3ccccc3)cc2)c1O` [LC365], the MIC was determined as 3.125 µg/mL in [4] (strain 6075066346, MCR (+)); 3.125 µg/mL in assay [4] (strain 6083655967, MCR (+)); 3.125 µg/mL in [4] (strain 6103645107, MCR (+)); 3.125 µg/mL in assay [4] (strain 6123520276, MCR (+)); 3.125 µg/mL in assay [4] (strain 7013177695, MCR (+)); 3.125 µg/mL in assay [4] (strain 7023436560, MCR (+)). Moreover, the MIC is 3.125 µg/mL in [4] (strain 7023444207, MCR (+)); more than 50 µg/mL in [5]; 3.125 µg/mL in assay [6] (strain 6083672926, MCR (−)); 3.125 µg/mL in assay [6] (strain 7023446108, MCR (−)); 3.125 µg/mL in [6] (strain 7033607097, MCR (−)). In addition, the “Colistin MIC in the presence” value in [7] (setting [10]) is 0.39 µg/mL; in assay [7] (setting [11]) it was 0.39 µg/mL; in assay [7] (setting [12]), 0.39 µg/mL; in assay [7] (setting [13]), 0.39 µg/mL; in assay [8] (compound at 2 μg) it was more than 12.5 µg/mL; in assay [9] (setting [14]) it was 0.195 µg/mL. The “Colistin MIC in the presence” value in assay [9] (setting [15]) and in assay [9] (setting [16]) was 0.195 µg/mL throughout.

Consider `CC1(C)C=Cc2c(ccc3c2OCC(c2ccc(OCCCC[n+]4ccccc4)cc2OCCCC[n+]2ccccc2)C3)O1` (stereo not shown) [LC370], for which the MIC was 50 µg/mL in assay [4] (strain 6075066346, MCR (+)); 50 µg/mL in assay [4] (strain 6083655967, MCR (+)); 50 µg/mL in assay [4] (strain 6103645107, MCR (+)); 50 µg/mL in [4] (strain 6123520276, MCR (+)); 50 µg/mL in assay [4] (strain 7013177695, MCR (+)); 50 µg/mL in assay [4] (strain 7023436560, MCR (+)). Besides, the MIC in [4] (strain 7023444207, MCR (+)) is 50 µg/mL; in assay [5], more than 50 µg/mL; in assay [6] (strain 6083672926, MCR (−)), 25 µg/mL; in assay [6] (strain 7023446108, MCR (−)), 25 µg/mL; in [6] (strain 7033607097, MCR (−)), 25 µg/mL. Further, the “Colistin MIC in the presence” value in assay [7] (strain 6075066346, MCR(+), compound at 10 μg (Table 2a: 10 ug/ml)) came to 0.195 µg/mL; in [7] (strain 6083655967, MCR(+), compound at 10 μg (Table 2a: 10 ug/ml)), 0.39 µg/mL; in assay [7] (strain 6103645107, MCR(+), compound at 10 μg (Table 2a: 10 ug/ml)), 0.195 µg/mL; in assay [7] (strain 6123520276, MCR(+), compound at 10 μg (Table 2a: 10 ug/ml)), 0.195 µg/mL; in [7] (strain 7013177695, MCR(+), compound at 10 μg (Table 2a: 10 ug/ml)), 0.195 µg/mL; in [7] (strain 7023436560, MCR(+), compound at 10 μg (Table 2a: 10 ug/ml)) it was 0.195 µg/mL. For the same molecule, the “Colistin MIC in the presence” value was 0.195 µg/mL in assay [7] (strain 7023444207, MCR(+), compound at 10 μg (Table 2a: 10 ug/ml)); more than 12.5 µg/mL in assay [8] (compound at 10 μg (Table 2a: 10 ug/ml)); more than 12.5 µg/mL in [9] (strain 6083672926, MCR(−), compound at 10 μg (Table 2a: 10 ug/ml)); 0.195 µg/mL in assay [9] (strain 7023446108, MCR(−), compound at 10 μg (Table 2a: 10 ug/ml)); 0.195 µg/mL in assay [9] (strain 7033607097, MCR(−), compound at 10 μg (Table 2a: 10 ug/ml)).
